For assay [1], the system named is B. adolescentis phylogenetic group. Put plainly: Faecal microbiota / Bifidobacterium profiling after 2 weeks' daily HMO consumption by healthy adults. Type of assay: in vivo, human. Conditions: oral. Here is the method: (§1) A total of 100 male and female healthy adults are recruited to participate in the study. After a screening visit and run-in period of 1-2 weeks, the participants are selected and randomized into ten groups, each of 10 subjects. One group is administered a placebo product containing 2 grams of glucose. The remaining 9 groups are administered treatment product containing a) 20 g of 2′-FL, b) 10 g of 2′-FL, c) 5 g of 2′-FL, d) 20 g of LNnT, e) 10 g of LNnT, f) 5 g of LNnT, g) 20 g of a 2:1 mixture of 2′-FL and LNnT, h) 10 g of a 2:1 mixture of 2′-FL and LNnT, and i) 5 g of a 2:1 mixture of 2′-FL and LNnT for 2 weeks (the amounts correspond to a daily dose). The placebo and treatment products are in powder form in a unit dosage container.
(§2) At the second visit, eligibility criteria are checked and eligible subjects are randomised to the ten arms in the trial (treatment groups and placebo group). The faecal samples are collected and equipment for new samples are distributed. Participants are familiarised with an interactive internet enabled system which recorded data daily and are provided with either treatment or control products. Subjects are reminded not to change their usual diet during the study. Blood samples are collected for biomarker studies. The faecal samples are stored at −80° C. until analysis.
(§3) The study runs for 2 weeks with the participants consuming either a placebo or a treatment product daily. Participants are instructed to consume the products in the morning with breakfast. Compliance is monitored through the interactive internet enabled system.
(§4) At the end of the study, each participant has an exit visit with the medical team. Faecal samples and blood samples are collected.
(§5) To assess the microbiota profile, DNA is extracted from the faecal samples using a 96-well PowerSoil DNA Isolation Kit (MO-BIO). A minimum of one sample-well per plate is kept empty to serve as a negative control during PCR. PCR is done with the forward primer S-D-Bact-0341-b-S-17 and reverse primer S-D-Bact-0785-a-A-21 (Klindworth et al. Nucleic Acids Res. 41, e1 (2013)) with Illumina adapters attached. These are universal bacterial 16S rDNA primers, which targeted the V3-V4 region. The following PCR program is used: 98° C. for 30 sec, 25× (98° C. for 10 s, 55° C. for 20 s, 72° C. for 20 s), 72° C. for 5 min. Amplification is verified by running the products on a 1% agarose gel. Barcodes are added in a nested PCR using the Nextera Index Kit V2 (Illumina) with the following PCR program: 98° C. for 30 sec, 8× (98° C. for 10 s, 55° C. for 20 s, 72° C. for 20 s), 72° C. for 5 min. Attachment of primers is verified by running the products on a 1% agarose gel. Products from the nested PCR are normalized using the SequalPrep Normalization Plate Kit and pooled. Pooled libraries are concentrated by evaporation and the DNA concentration of pooled libraries is measured on a Qubit fluorometer using the Qubit High Sensitivity Assay Kit (Thermo Fisher Scientific). Sequencing is done on a MiSeq desktop sequencer using the MiSeq Reagent Kit V3 (Illumina) for 2×300 bp paired-end sequencing. The 64-bit version of USEARCH is used for bioinformatical analysis of the sequence data.
(§6) To assess the Bifidobacterium community, ITS profiling of DNA samples is performed according to Milani et al. FEMS Microbiol. Ecol. 90, 493 (2014). […] Both B. adolescentis and B. pseudocatenulatum are members of the B. adolescentis phylogenetic group. It can be seen that oral ingestion of the HMOs clearly increases the abundance of B. adolescentis and/or B. pseudocatenulatum in the microbiota of healthy adults, as well as their relative abundance compared to the totality of other Bifidobacterium species.

Assay [2] concerns totality of B. longum + B. bifidum + B. animalis lactis + B. angulatum. The assay is described as above. The assay is classed as in vivo, human. Conditions: oral. Here is the method:
as §1, §2, §3, §4, §5, §6

With 2′-fucosyllactose [2′-FL], the “percentage increase of B. adolescentis phylogenetic group in human faeces” value in assay [1] (5 g daily dose) is given as 50%; in assay [1] (10 g daily dose) it was 325%; in assay [1] (20 g daily dose), 120%. The “percentage increase of totality of B. longum + B. bifidum + B. animalis lactis + B. angulatum in human faeces” value was 0% in assay [2] (5 g daily dose), 20% in assay [2] (10 g daily dose) and 15% in assay [2] (20 g daily dose).

As for `CC(=O)N[C@H]1[C@H](O[C@H]2[C@@H](O)[C@@H](CO)O[C@@H](O[C@H]3[C@H](O)[C@@H](O)C(O)O[C@@H]3CO)[C@@H]2O)O[C@H](CO)[C@@H](O[C@@H]2O[C@H](CO)[C@H](O)[C@H](O)[C@H]2O)[C@@H]1O` (mixture of isomers) [LNnT, lacto-N-neotetraose], the “percentage increase of B. adolescentis phylogenetic group in human faeces” value stood at 90% in assay [1] (5 g daily dose), 195% in assay [1] (10 g daily dose) and 185% in assay [1] (20 g daily dose). For the same molecule, the figures for the “percentage increase of totality of B. longum + B. bifidum + B. animalis lactis + B. angulatum in human faeces” value in assay [2] (5 g daily dose), in assay [2] (10 g daily dose) and in assay [2] (20 g daily dose) were 50%, 130% and 105%, respectively.

These data come from patent US11696921B2, “Synthetic composition for microbiota modulation” (GLYCOM A/S, priority 2015, dated 2023).
